Measured values: PMC3376652 (Journal of Medicinal Chemistry, 2012)
Where two headings read alike, the source gives them in different places. Marks after values point to notes of the source that are not given here.

Key:
[1] = tested on: amphotropic murine leukemia virus (A-MLV); format: cell-based; settings: for IC50: Murine leukemia virus, read-out: A-MLV IC50
[2] = tested on: recombinant HIV-1YU2 on Cf2Th-CCR5 cells; test: Activation of viral infectivity in CD4-negative Cf2Th-CCR5 cells; format: cell-based; settings: for Activation of Viral Infectivity: Cf2Th-CCR5 cells
[3] = target: T1, gp120 from the YU2 strain (Human immunodeficiency virus type 1 group M subtype B, UniProt P35961); test: Isothermal titration calorimetry of binding to full-length gp120; parameters: species or system HIV-1; settings: for surface efficiency index (S.E.I.): calculated from KD and molecular polar surface area; for binding efficiency index (B.E.I.): calculated from KD and molecular weight; for change in heat capacity of binding: calculated from the temperature dependence of the binding enthalpies; for −TΔS: calculated from ΔG = ΔH – TΔS
[4] = tested on: 17b binding to monomeric core and full-length gp120; test: SPR of 17b binding to small molecule:gp120 complexes; parameters: species or system HIV-1
wild-type HIV-1YU2 virus [5] = format: cell-based; settings: for IC50: read-out: HIV-1, YU-2 IC50, Table 2, Cf2Th-CD4/CCR5 cells, mean ± SD
Cf2Th-CD4-CCR5 cells = test: Luminescent cell-based viability assay; parameters: species or system canine; settings: 1 to 100 μM, 48 hours
[6] = tested on: 42 HIV-1 clade B and C isolates; test: Viral breadth: neutralization of HIV-1 Env-pseudoviruses in TZM-bl cells; format: cell-based; settings: 42 HIV-1 strains (clades B and C); for neutralization breadth among the viral isolates tested: IC50 < 100 μM
S375Wgp120 YU2 virus = test: Viral inhibition of the Phe43 cavity filling mutant virus; format: cell-based, HIV-1
[7] = target: T1, gp120 from the YU2 strain; settings: ITC, 25 °C, ref Schon et al.[49] and Madani et al.[44], cited from earlier work
[8] = tested on: recombinant HIV-1YU2 on Cf2Th-CCR5 cells; settings: relative to 1, ref Schon et al.[49] and Madani et al.[44]; cited from earlier work
wild-type HIV-1YU2 virus [9] = settings: read-out: HIV-1, YU-2 IC50; Cf2Th-CD4/CCR5 cells, 10,000 RT units; ref Schon et al.[49] and Madani et al.[44]; cited from earlier work
[10] = Table 2, calculated from KD, 25 °C

Structure (SMILES) | inhibition of entry of A-MLV control virus (specificity, in words) [1] | entry enhancement of YU2 viruses into CD4-negative, CCR5-expressing cells (in words) [2] | Activation of Viral Infectivity ([2]; Table 2, relative to 4) | ΔH ([3]; Table 2, ITC, 25 °C) | ΔG [3, 10] | effect on binding of 17b to gp120 [4] | percent of isolates with IC50 < 10 μM [6] | change in heat capacity of binding [3] | ΔG [7] | ΔH [7] | Activation of Viral Infectivity [8] | also measured
N[C@H]1Cc2ccccc2[C@@H]1NC(=O)C(=O)Nc1ccc(Cl)c(F)c1 [(+)-6, N^1-(4-chloro-3-fluorophenyl)-N^2-[(1S,2S)-2-amino-2,3-dihydro-1H-inden-1-yl]-oxalamide] | inhibiting entry of the A-MLV control virus with a similar IC50 value | enhanced viral entry in CD4-negative cells at levels comparable to those previously measured for 1–4 | 1.4 ± 0.5 (relative to 4) | -15.4 kcal/mol | -7.9 kcal/mol | enhance binding of 17b to both the monomeric core and full-length gp120 |  |  |  |  |  | 
O=C(Nc1ccc(Cl)c(F)c1)C(=O)N[C@H]1c2ccccc2C[C@H]1O [(+)-9, N^1-(4-chloro-3-fluorophenyl)-N^2-[(1S,2R)-2-hydroxy-2,3-dihydro-1H-inden-1-yl]oxalamide] |  |  |  |  |  |  |  |  |  |  |  | inhibition of viral entry (in words, data not shown) (wild-type HIV-1YU2 virus [5]): weak inhibition of viral entry
N=C(N)N[C@H]1Cc2ccccc2[C@@H]1NC(=O)C(=O)Nc1ccc(Cl)c(F)c1.O=CO [(+)-12, N^1-(4-chloro-3-fluorophenyl)-N^2-[(1S,2S)-2-guanidino-2,3-dihydro-1H-inden-1-yl]-oxalamide formate] | neither compound was found to inhibit entry of A-MLV | no appreciable entry enhancement | 0.1 ± 0.0 (19)^j (relative to 4) | -14.9 kcal/mol | -9.0 kcal/mol | enhance binding of 17b to both the monomeric core and full-length gp120 | 57% | −398 ± 5 cal/(K × mol) |  |  |  | in vitro cytotoxicity, inhibition of cell growth (Cf2Th-CD4-CCR5 cells): did not demonstrate measurable inhibition of cell growth; IC50 (wild-type HIV-1YU2 virus [5]): 20 µM; IC50 [1]: > 100 µM; neutralization breadth among the viral isolates tested [6]: 100%; surface efficiency index (S.E.I.) [3]: 6.4; binding efficiency index (B.E.I.) [3]: 16.8; sensitivity of YU2 S375Wgp120 virus to compound (S375Wgp120 YU2 virus): completely resistant
N[C@@H]1Cc2ccccc2[C@H]1NC(=O)C(=O)Nc1ccc(Cl)c(F)c1 [(−)-6] | inhibiting entry of the A-MLV control virus with a similar IC50 value | enhanced viral entry in CD4-negative cells at levels comparable to those previously measured for 1–4 | 1.0 ± 0.3 (relative to 4) | -19.5 kcal/mol | -8.1 kcal/mol | enhance binding of 17b to both the monomeric core and full-length gp120 |  |  |  |  |  | Kd ([3]; KD, Table 2, ITC, 25 °C, PBS pH 7.4, 2% DMSO): 1.2 µM; −TΔS ([3]; Table 2): +11.4 kcal/mol
N=C(N)N[C@@H]1Cc2ccccc2[C@H]1NC(=O)C(=O)Nc1ccc(Cl)c(F)c1.O=CO [(−)-12] | neither compound was found to inhibit entry of A-MLV | no appreciable entry enhancement | 0.0 ± 0.0 (4)^j (relative to 4) | -19.4 kcal/mol | -9.0 kcal/mol | enhance binding of 17b to both the monomeric core and full-length gp120 | 52% | −817 ± 15 cal/(K × mol) |  |  |  | IC50 (wild-type HIV-1YU2 virus [5]): 20 µM; IC50 [1]: > 100 µM; neutralization breadth among the viral isolates tested [6]: 100%; −TΔS ([3]; Table 2): +10.4 kcal/mol; surface efficiency index (S.E.I.) [3]: 6.4; binding efficiency index (B.E.I.) [3]: 16.8; sensitivity of YU2 S375Wgp120 virus to compound (S375Wgp120 YU2 virus): completely resistant
CC1(C)CC(NC(=O)C(=O)Nc2ccc(Cl)cc2)CC(C)(C)N1 [Compound 1] |  |  |  |  |  |  | 12% |  | –7.4 kcal/mol | –24.5 kcal/mol | 1.0 | −TΔS ([7]; listed as NBD-556 (1)): +17.1 kcal/mol; IC50 (wild-type HIV-1YU2 virus [9]): > 100 µM
CC1(C)CC(NC(=O)C(=O)Nc2ccc(Br)cc2)CC(C)(C)N1 [Compound 2] |  |  |  |  |  |  |  |  | –7.7 kcal/mol | –22.8 kcal/mol | 0.8 (relative to 1) | −TΔS ([7]; listed as NBD-557 (2)): +15.1 kcal/mol; IC50 (wild-type HIV-1YU2 virus [9]): > 100 µM
CC1(C)CC(NC(=O)C(=O)Nc2ccc(Cl)c(F)c2)CC(C)(C)N1 [Compound 3] |  |  |  |  |  |  |  |  | –8.3 kcal/mol | –20.8 kcal/mol | 1.9 (relative to 1) | −TΔS ([7]; listed as JRC-I-191 (3)): +12.5 kcal/mol
CN1C(C)(C)CC(NC(=O)C(=O)Nc2ccc(Cl)c(F)c2)CC1(C)C [Compound 4] |  |  |  |  |  | enhance binding of 17b to both the monomeric core and full-length gp120 |  | −738 ± 36 cal/(K × mol) |  |  |  | Activation of Viral Infectivity ([2]; Table 1, relative to 3): 2.1 (relative to 3)^i; ΔH ([3]; Table 1, ITC, 25 °C): –19.7 kcal/mol; ΔG ([3]; Table 1, calculated from Kd, 25 °C): –8.8 kcal/mol; −TΔS ([3]; Table 1): +10.9 kcal/mol
